Data as given in patent publication US20030190364A1, “Biological affinity based delivery systems” (priority 2002, published 2003).
Where two headings read alike, the source gives them in different places. Where no end group is shown, it is not given here. [ ]: non-standard residue; d: D form. The star is where a group is joined. FITC = O=C1OC2(c3ccc(O)cc3Oc3cc(O)ccc32)c2ccc(NC(=S)*)cc21; Dansyl = CN(C)c1cccc2c(S(=O)(=O)*)cccc12; βAla = NCCC(=O)O

What was measured:
[1] = Heparin affinity column, NaCl concentration required for elution; format: binding; conditions: 50 mM sodium phosphate pH 7.5, gradient 0 to 2 M NaCl over 20 column volumes
Procedure: For purposes of the present invention, conditions for determining the affinity of the PB polypeptides (and/or the therapeutic agent) for heparin are as follows: The polypeptide is solubilized in 50 mM sodium phosphate buffer, pH 7.5 to a final concentration of 0.5 mg/ml. 1 mg of the polypeptide is loaded onto an Amersham Biosciences HiPrep 16/10 Heparin FF column (or suitable equivalent) at a flow rate of 5 ml/min at 25° C. After loading the polypeptide, a salt gradient is introduced to the column by increasing the sodium chloride content of the buffer from 0 to 2 M NaCl over 20 column volumes. The recorded NaCl concentration required for elution is determined by correlating the maximum absorbance value at 280 and/or 215 nm for each spectrum to the value of the gradient at that time point.
FIG. 4 is a chart depicting the relative heparin affinity of various heparin-binding peptides. Each peptide was solubilized in 50 mM sodium phosphate buffer, pH 7.5 to a final concentration of 0.5 mg/ml. Then, 1 mg of each peptide was loaded onto an Amersham Biosciences HiPrep 16/10 Heparin FF column at a flow rate of 5 ml/min. After loading the peptide, a salt gradient was introduced to the column by increasing the sodium chloride content of the buffer from 0 to 2 M NaCl over 20 column volumes. The recorded NaCl concentration required for elution was determined by correlating the maximum absorbance value at 280 and/or 215 nm for each spectrum to the value of the gradient at that time point.

[2] = cited from earlier work
[3] = Dissociation constant (KD) of peptides from heparin, literature values; format: binding; conditions: PBD3 versus PBD2
[4] = Relative affinity to heparin of synthesized peptides (Table 2); format: binding; conditions: corresponds to the bold-faced amino acids of the sequence
[5] = references [1], [2], read-out: Affinity to Heparin (KD)

Substance	NaCl Elution Conc. [1] [mM]	also measured
AKLNCRLYRKANKSSKL [PBD8]	481.2	
FITC-A(β)KAFAALAARLYRKAGC ({FITC}-[βAla]KAFAALAARLYRKAGC) [PBD3, PBD3 control is the same peptide tested without heparin]	313.0	Kd [2, 5]: 660 nM; dissociation constant relative to that of PBD2 [3]: 1.8 times
AAFAKLAARLYRKAGC [HBD-low]		Relative Affinity to Heparin [4]: 14.3%
WKA(β)FAKLNCRLYRKA (WK[βAla]FAKLNCRLYRKA) [PBD7]	422.6	
Dansyl-GYGRKKRRQRRR [Dansyl-TAT]	727.6	
FITC-A(β)AAFAKLAARLYRKAGC ({FITC}-[βAla]AAFAKLAARLYRKAGC) [PBD2]	354.8	Kd [2, 5]: 370 nM
FITC-A(β)GGGGYGRKKRRQRRR ({FITC}-[βAla]GGGGYGRKKRRQRRR) [TAT, reference compound]		Kd ([2]; low molecular weight heparin and heparin to which only one molecule of TAT is bound (Rusnati, 1999), read-out: KD, dissociation constant for TAT from heparin): ~700 nM; Kd [2, 5]: 30 nM; Relative Affinity to Heparin [4]: 170%
KAFAKLAARLYRKAGC [HBD-high]		Relative Affinity to Heparin [4]: 100%
KAFAKLAARLYRKAGC [PBD1-A]	325.0	
dansyl-GKAFAKLAARLYRKAGC (Dansyl-GKAFAKLAARLYRKAGC) [PBD1]	685.9	
FITC-A(β)YGRKKRRQRRR (AYGRKKRRQRRR; N-terminal FITC-beta-alanine) [FITC-TAT]	703.6	
FITC-A(β)KAFAKLAARLYRKAGC ({FITC}-[βAla]KAFAKLAARLYRKAGC) [FITC-PBD1]	438.8	
